Assay results as given in PMC3635066 (Journal of medicinal chemistry, 2012).
pIC50: −log10 of the molar value.

Experiments:
recombinant CpIMPDH = biological target: T1, recombinant CpIMPDH (Cryptosporidium parvum, UniProt Q8T6T2); assay: biochemical; type: biochemical; settings: for increase in potency: relative to compound 1
T1 sequence (Q8T6T2 1-400): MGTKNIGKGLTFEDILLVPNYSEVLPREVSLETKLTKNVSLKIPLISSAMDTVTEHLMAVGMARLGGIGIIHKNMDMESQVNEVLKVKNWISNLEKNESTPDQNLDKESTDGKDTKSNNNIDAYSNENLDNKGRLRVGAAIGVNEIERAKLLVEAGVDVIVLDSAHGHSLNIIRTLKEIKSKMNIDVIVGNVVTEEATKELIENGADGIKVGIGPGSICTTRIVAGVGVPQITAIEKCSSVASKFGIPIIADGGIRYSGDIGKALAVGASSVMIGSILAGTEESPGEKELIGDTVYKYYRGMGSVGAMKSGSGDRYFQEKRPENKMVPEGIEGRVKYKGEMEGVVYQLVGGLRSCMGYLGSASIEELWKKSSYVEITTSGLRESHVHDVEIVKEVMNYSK

[1] = Mouse liver microsomal stability; type: in vitro ADME

**Q.** With `C=C(C)c1cccc(C(C)(C)NC(=O)Nc2ccc(Cl)cc2)c1` [Compound 5b, 1-(4-chlorophenyl)-3-(2-(3-(prop-1-en-2-yl)phenyl)propan-2-yl)urea] as the compound, how does the increase in potency (recombinant CpIMPDH) read?
**A.** 16 fold

**Q.** Which increase in potency (recombinant CpIMPDH) does the source give for `C=C(C)c1cccc(C(C)(C)NC(=O)Nc2ccc(Br)cc2)c1` [Compound 5c, 1-(4-Bromophenyl)-3-(2-(3-(prop-1-en-2-yl)phenyl)propan-2-yl)urea] here?
**A.** 32 fold

**Q.** Which loss of activity (recombinant CpIMPDH; relative to 5b) does the source give for `C=C(C)c1cccc(C(C)(C)NC(=O)Nc2cccc(Cl)c2)c1` [Compound 5d, 1-(3-Chlorophenyl)-3-(2-(3-(prop-1-en-2-yl)phenyl)propan-2-yl)urea] here?
**A.** 3 fold

**Q.** With `C=C(C)c1cccc(C(C)(C)NC(=O)Nc2ccccc2Cl)c1` [Compound 5e, 1-(2-Chlorophenyl)-3-(2-(3-(prop-1-en-2-yl)phenyl)propan-2-yl)urea] as the compound, how does the “CpIMPDH inhibitory activity (in words)” value (recombinant CpIMPDH) read?
**A.** completely inactive

**Q.** Which “CpIMPDH inhibitory activity (in words)” value (recombinant CpIMPDH) does the source give for `C=C(C)c1cccc(C(C)(C)NC(=O)Nc2ccc(C(C)(C)C)cc2)c1` [Compound 5g, 1-(4-(tert-Butyl)phenyl)-3-(2-(3-(prop-1-en-2-yl)phenyl)propan-2-yl)urea] here?
**A.** lacking activity

**Q.** With `CC(=O)c1cccc(C(C)(C)NC(=O)Nc2ccc(Cl)c(C(N)=O)c2)c1` [Compound 6c, 5-(3-(2-(3-acetylphenyl)propan-2-yl)ureido)-2-chlorobenzamide] as the compound, how does the “mouse liver microsomal stability (in words)” value [1] read?
**A.** very resistant to oxidative degradation in microsomes

**Q.** With `C/C(=N\O)c1cccc(C(C)(C)NC(=O)Nc2ccc(Cl)c(C(N)=O)c2)c1` [Compound 7c, (E) 2 chloro 5-(3-(2-(3-(1-(hydroxyimino)ethyl)phenyl)propan-2-yl)ureido)benzamide] as the compound, how does the pIC50 (recombinant CpIMPDH) read?
**A.** ≥ 9.00

**Q.** For `CO/N=C(\C)c1cccc(C(C)(C)NC(=O)Nc2ccc(Cl)c(C(F)(F)F)c2)c1` [Compound 8a, (E)-1-(4-Chloro-3-(trifluoromethyl)phenyl)-3-(2-(3-(1-(methoxyimino)ethyl)phenyl)propan-2-yl)urea], which “mouse liver microsomal stability (in words)” value [1] is on record?
**A.** less stable

**Q.** With `C/C(=N\OCCN)c1cccc(C(C)(C)NC(=O)Nc2ccc(Cl)c([N+](=O)[O-])c2)c1` [Compound 9, (E)-1-(2-(3-(1-((2-aminoethoxy)imino)ethyl)phenyl)propan-2-yl)-3 (4-chloro-3-nitrophenyl)urea] as the compound, how does the “mouse liver microsomal stability (in words)” value [1] read?
**A.** excellent mouse liver microsomal stability

**Q.** For `CC(O)c1cccc(C(C)(C)NC(=O)Nc2ccc(Cl)cc2)c1` (stereo not shown) [Compound 10, 1-(4-chlorophenyl)-3-(2-(3-(1-hydroxyethyl)phenyl)propan-2-yl)urea], which “CpIMPDH inhibitory activity (in words)” value (recombinant CpIMPDH) is on record?
**A.** moderate activity

**Q.** For `CC(C)c1cccc(C(C)(C)NC(=O)Nc2ccc3ccccc3c2)c1` [Compound 11, 1-(2-(3-Isopropylphenyl)propan-2-yl)-3-(naphthalen-2-yl)urea], which “CpIMPDH inhibitory activity (in words)” value (recombinant CpIMPDH) is on record?
**A.** complete loss of inhibitory activity

**Q.** Which “CpIMPDH inhibitory activity (in words)” value (recombinant CpIMPDH) does the source give for `CC(=O)c1cccc(CNC(=O)Nc2ccc(Cl)cc2)c1` [Compound 23, 1-(3-Acetylbenzyl)-3-(4-chlorophenyl) urea] here?
**A.** complete loss of activity

**Q.** With `CC(=O)c1cccc(C(C)(C)OC(=O)Nc2ccc(Cl)cc2)c1` [Compound 28, 2-(3-Acetylphenyl) propan-2-yl (4-chlorophenyl)carbamate] as the compound, how does the reduction in activity (recombinant CpIMPDH; relative to 6a) read?
**A.** 2 fold

**Q.** Which “CpIMPDH inhibitory activity (in words)” value (recombinant CpIMPDH) does the source give for `CC(C)(NC(=O)Nc1ccc(Cl)c(C(N)=O)c1)c1cccc(-c2ccccc2)c1` [Compound 36a, 5-(3-(2-([1, 1′-biphenyl]-3-yl)propan-2-yl)ureido)-2-chlorobenzamide] here?
**A.** retained potent activity

**Q.** With `CC(C)(NC(=O)Nc1ccc(Cl)cc1)c1ccc(-c2ccccc2)cc1` [Compound 36b, 1-(2-([1,1′-Biphenyl]-4-yl)propan-2-yl)-3-(4-chlorophenyl)urea] as the compound, how does the “CpIMPDH inhibitory activity (in words)” value (recombinant CpIMPDH) read?
**A.** complete loss of inhibitory activity

**Q.** With `CC(C)(NC(=O)Nc1ccc2[nH]c(=O)[nH]c2c1)c1ccccc1` [Compound 38, 1-(2-Oxo-2,3-dihydro-1H-benzo[d]imidazol-5-yl)-3-(2-phenylpropan 2 yl)urea] as the compound, how does the “CpIMPDH inhibitory activity (in words)” value (recombinant CpIMPDH) read?
**A.** complete loss of inhibitory activity
